Results taken from US10413517B2, “Composition and method for the treatment of neurological diseases and cerebral injury” (UNIVERSITY OF NOTRE DAME DU LAC, priority 2014, dated 2019).

Legend:
GFAP, MIP1α and CD68 = assay: qPCR of inflammatory markers in the brain; format: in vivo, mouse; conditions: day 100, once weekly dosing
Protocol: (§1) Vorinostat (50 mg/Kg)—Vorinostat was first dissolved in DMSO (100 mg/ml) and then diluted with 9 volume of Polyethylene Glycol 400 (PEG). This drug solution was named as ‘solution A’. Solution A was diluted with equal volume of water where the final concentration of each component was as follows; Vorinostat, 5 mg/ml; DMSO, 5% and PEG, 45%. Mice were given weekly intraperitoneal (i.p) injections starting at 21 days. Vorinostat (100 mg/Kg)—Vorinostat was first dissolved in DMSO (200 mg/ml) and then mixed with 9 volumes of PEG. Rest of the methods and injections plan were as described above. HPBCD (4000 mg/Kg)—40% HPBCD solution prepared in water. Mice were given weekly i.p injections starting at 7 days. HPBCD (2000 mg/Kg)—20% HPBCD solution prepared in water. Mice were given weekly i.p injections starting at 7 days. TCF (Vorinostat, 50 mg/Kg+HPBCD, 2000 mg/Kg, DMSO, 5%+PEG, 45%)—To prepare the formulation, the ‘solution A’ was first prepared as described above and equal volume of 40% HPBCD solution was slowly layered on top of it. The solution was gently mixed for 10 min at RT on rocker set at medium speed. […]
(§2) Quantitative PCR (qPCR) was performed using Power SYBR Green RNA-to-CT 1-Step Kit and an ABI Prism 7500 Fast real-time PCR system (Applied Biosystems, Grand Island, USA). […] The relative amount of transcript was determined using comparative CT method. […]

macrophages in the liver = assay: Liver macrophage labeling (anti-CTSS immunofluorescence); format: in vivo, mouse; conditions: 100 days, Vo 50 mg/Kg, HPBCD 2000 mg/Kg, TCF
Protocol: (§3) Mice were sacrificed by asphyxiation using CO2. Harvested organs were immersed fixed in 10% neutral buffered formalin (˜4% formaldehyde) for 24 hrs at RT. The organs were subsequently stored in 70% alcohol at RT until transfer to paraffin. Paraffin-embedded tissue sections (4-5 μm) were dewaxed in xylene and alcohol. Calbindin antigen retrieval was done by pre-incubating deparaffinized samples with 0.05% proteinase K (Dako, Germany) in 50 mM Tris-HCl (pH 7.5) for 8 min at RT. CTSS and NPC1 was retrieved by boiling the sections in acidic condition for 30 min. Blocking was done either with 2% goat serum (for calbindin and NPC1) or 2% rabbit serum (for cathepsin S) for 30 min at RT. Sections were incubated with anti-calbindin (1:1000, C9848, Sigma), anti-cathepsin S (20 μg/ml, M-19, Santa Cruz Biotechnology), anti-NPC1 (custom made against human NPC1 protein, 20 μg/ml) overnight at 4° C. The appropriate FITC or TRITC-conjugated secondary IgG (MP Biomedicals, Solon, Ohio, USA) antibodies were used at 1:200 dilution. Sections were subsequently washed with PBS containing DAPI (0.5 μg/ml). Vectashield (Vector laboratories) was used as mounting medium and processed for fluorescence microscopy.
(§4) Tissue sections after IFA and filipin stained fibroblasts were visualized with 40× oil-immersion objective lens (NA 1.35). Filipin stain was visualized using DAPI filter. Digital image collection were performed using an Olympus IX inverted fluorescence microscope and a Photometrix cooled CCD camera (CH350/LCCD) driven by DeltaVision software from Applied Precision (Seattle, Wash., USA). DeltaVision software (softWoRx) was used to deconvolve these images. Images are single optical sections. Images were analyzed using ImageJ software (NIH, MD, USA).

Npc1 transcript [1] = assay: qPCR of Npc1 transcript in liver; format: in vivo, mouse; conditions: at 100 days
Protocol: as §1, §2

Npc1 transcript [2] = assay: qPCR of Npc1 transcript in brain; format: in vivo, mouse; conditions: at 100 days
Protocol: as §1, §2

[3] = delivered systemically; cited from earlier work
Npc1^nmf164 fibroblasts = assay: Filipin staining of cholesterol in cultured mouse skin fibroblasts; format: cell-based; conditions: 5 μM Vo for 48 hrs
Protocol: Ear pinna was cleaned with 70% alcohol and 2-3 small pieces (3×3 mm) were chopped and placed in 70% alcohol for 2 min and transferred to DMEM. Tissues were cut into small pieces and 2 ml of 0.25% trypsin were added, vigorously vortexed for 2 min and incubated at 37° C. with vortexing every 10 min. Trypsin was inactivated by adding 2 ml of culture media (DMEM+10%FBS). Cells were collected by spin (1000 rpm for 5 min), and were grown in DMEM+10% FBS in the presence penicillin (50 U/ml) and streptomycin (50 μg/ml). For treatment with vorinostat, fibroblasts (4×10^4) were plated in 24 well plate containing glass slide. Npc1^nmf164 fibroblasts were treated with 5 μM vorinostat for 48 hrs. Cells incubated with 0.025% DMSO served as vehicle control. Cells were fixed with 4% paraformaldehyde followed by incubation with filipin (100 μg/ml) to stain cholesterol. Slides were mounted using Vectashield (Vector laboratories) and processed for fluorescence microscopy.
as §4, with “Filipin stain was visualized using DAPI filter.” left out, “DeltaVision software (softWoRx) was used to deconvolve these images. Images are single optical sections.” left out

[4] = tested on: CD68, ITGAX, MIP1α and CTSD; assay: qPCR of inflammatory markers in the liver; format: in vivo, mouse; conditions: 100 days; Vo 50 mg/Kg; HPBCD 2000 mg/Kg; TCF
Protocol: as §1, §2

NPC1 protein = assay: NPC1 immunostaining of Purkinje cells in cerebellar sections; format: in vivo, mouse; conditions: 100 days old mice
Protocol: as §3, with “The appropriate FITC or TRITC-conjugated secondary IgG (MP Biomedicals, Solon, Ohio, USA) antibodies were used at 1:200 dilution. Sections were subsequently washed with PBS containing DAPI (0.5 μg/ml).” left out
as §4, with “Filipin stain was visualized using DAPI filter.” left out, “DeltaVision software (softWoRx) was used to deconvolve these images. Images are single optical sections.” left out

[5] = cited from earlier work

| SMILES | levels of inflammatory markers GFAP, MIP1α and CD68 in the brain (GFAP, MIP1α and CD68) | macrophages in the liver (histology) (macrophages in the liver) | Npc1 transcript levels in the liver (Npc1 transcript [1]) | Npc1 transcript levels in the brain (Npc1 transcript [2]) | crossing of the blood brain barrier [3] | cholesterol levels in NPC fibroblasts (filipin) (Npc1^nmf164 fibroblasts) | cholesterol levels in NPC fibroblasts (filipin) (Npc1^nmf164 fibroblasts; listed as Vorinostat) | macrophages in the liver (histology) (macrophages in the liver; listed as Vo) | inflammatory markers in the liver [4] | NPC1 staining in Purkinje cells (in words) (NPC1 protein) | solubility in aqueous solution [5] |
| --- | --- | --- | --- | --- | --- | --- | --- | --- | --- | --- | --- |
| CC(O)COC[C@H]1O[C@@H]2O[C@H]3[C@H](O)[C@@H](O)[C@@H](O[C@H]4[C@H](O)[C@@H](O)[C@@H](O[C@H]5[C@H](O)[C@@H](O)[C@@H](O[C@H]6[C@H](O)[C@@H](O)[C@@H](O[C@H]7[C@H](O)[C@@H](O)[C@@H](O[C@H]8[C@H](O)[C@@H](O)[C@@H](O[C@H]1[C@H](O)[C@H]2O)O[C@@H]8COCC(C)O)O[C@@H]7COCC(C)O)O[C@@H]6COCC(C)O)O[C@@H]5COCC(C)O)O[C@@H]4COCC(C)O)O[C@@H]3COCC(C)O (stereo partly drawn) [HPBCD, 2-Hydroxypropyl-β-cyclodextrin] | reduced their levels comparably to TCF and better than Vo | Foamy macrophages were barely seen | no effect on target Npc1 expression | little or no effect on brain Npc1 transcript levels | does not cross the blood brain barrier | – | – | – | – | – | – |
| O=C(CCCCCCC(=O)Nc1ccccc1)NO [vorinostat] | – | also had effect but less so than TCF or HPBCD | – | little or no effect on brain Npc1 transcript levels | – | reduced | decreased cholesterol levels in NPC cells to those seen in fibroblasts from control | reduced the clustering of macrophages | significant anti-inflammatory activity | Slight staining of NPC1 | poorly soluble in aqueous solution |
